# Source: patent publication US6676928B2, “Perfluoroalkyl-containing complexes with polar radicals, process for their production and their use” (Schering Aktiengesellschaft, priority 2000, dated 2004)
# “And” between values parts separate entries of the source, which are not always exact repeats. Equal values may be shown once.
# Tests used:
# [1] = in vivo; cited from earlier work
# [2] = Organ distribution (including tumor and lymph node concentration) after intravenous administration in prostate-cancer-carrying rats; type: in vivo, rats (Cop-inbreeding, Dunning R3327 MAT-Lu prostate cancer); conditions: rat i.v. 100 μmol Gd/kg
# Excerpt: Organ Distribution (Including Tumor and Lymph Node Concentration) After Intravenous Administration of the Contrast Medium According to the Invention From Example 3 in Prostate-cancer-Carrying Rats.
# After intravenous administration of 100 μmol of total gadolinium/kg of body weight of the title compound of Example 3 in rats (Cop-inbreeding Dunning R3327 MAT-Lu prostate cancer i.m.-implanted 12 days earlier), the metal content in various organs, in tumors and in lymph nodes (pooled as mesenteral and peripheral lymph nodes) was determined 10 minutes, 1 and 24 hours after administration (MW=SD, n=3).
# [3] = 39° C., 0.47 T; cited from earlier work
# [4] = 39° C., 0.47 T; cited from earlier work; remark: listed apart in the source
# [5] = tested on: infarcted tissue (kidney, myocardium); conditions: two cases: infarction-kidney and myocardium; cited from earlier work
# [6] = blood (58 ml of blood/kg of body weight), 10 min p.i.
# [7] = blood (58 ml of blood/kg of body weight), 1 h p.i.
# [8] = blood (58 ml of blood/kg of body weight), 24 h p.i.
# [9] = intestine (emptied), 10 min p.i.
# [10] = mes. LK (pooled mesenteral lymph nodes), 10 min p.i.
# [11] = mes. LK (pooled mesenteral lymph nodes), 1 h p.i.
# [12] = mes. LK (pooled mesenteral lymph nodes), 24 h p.i.
# [13] = muscle (only tissue sample from right lower leg muscle), 10 min p.i.
# [14] = muscle (only tissue sample from right lower leg muscle), 1 h p.i.
# [15] = muscle (only tissue sample from right lower leg muscle), 24 h p.i.
# [16] = periph. LK (pooled peripheral lymph nodes), 10 min p.i.
# [17] = periph. LK (pooled peripheral lymph nodes), 1 h p.i.
# [18] = periph. LK (pooled peripheral lymph nodes), 24 h p.i.
# [19] = remainder of the body, 24 h p.i.
compound,measurement,setting,value
"O=S(=O)([O-])c1ccc(-c2c3nc(c(-c4ccc(S(=O)(=O)[O-])cc4)c4ccc([nH]4)c(-c4ccc(S(=O)(=O)[O-])cc4)c4nc(c(-c5ccc(S(=O)(=O)[O-])cc5)c5ccc2[nH]5)C=C4)C=C3)cc1.[Mn+4] [Mn-TPPS, manganese-5,10,15,20-tetrakis(4-sulfonatophenyl)-porphyrin]",LD50,[1],approximately 0.5 mmol/kg
CC(C(=O)NCC(=O)NCCCC[C@H](NC(=O)CNC(=O)C(C)N1CCN(CC(=O)[O-])CCN(CC(=O)[O-])CCN(CC(=O)[O-])CC1)C(=O)N1CCN(S(=O)(=O)C(F)(F)C(F)(F)C(F)(F)C(F)(F)C(F)(F)C(F)(F)C(F)(F)C(F)(F)F)CC1)N1CCN(CC(=O)[O-])CCN(CC(=O)[O-])CCN(CC(=O)[O-])CC1.[Gd+3].[Gd+3] (some centres unmarked) [Example 3],"% Dosis pro Gesamtgewebe, Summe der Organe (sum total of all of the organs)","[2]; 10 min p.i., less the remainder of the body","46,35%"
same,"% Dosis pro Gesamtgewebe, Summe der Organe (sum total of all of the organs)","[2]; 1 h p.i., less the remainder of the body","41,79%"
same,"% Dosis pro Gesamtgewebe, Bilanz (balance)",[2]; 24 h p.i.,"96,24%"
same,"% Dosis pro Gesamtgewebe, Summe der Organe (sum total of all of the organs)",[2]; 24 h p.i.,"50,95%"
same,% Dosis pro Gesamtgewebe (% dose per total tissue),[2]; [6],"35,18%"
same,Gd-Konzentration (Gd-concentration),[2]; [6],621 µmol/L
same,% Dosis pro Gesamtgewebe (% dose per total tissue),[2]; [7],"30,63%"
same,Gd-Konzentration (Gd-concentration),[2]; [7],534 µmol/L
same,% Dosis pro Gesamtgewebe (% dose per total tissue),[2]; [8],"9,58%"
same,Gd-Konzentration (Gd-concentration),[2]; [8],169 µmol/L
same,% Dosis pro Gesamtgewebe (% dose per total tissue),"[2]; brain, 10 min p.i.","0,09%"
same,Gd-Konzentration (Gd-concentration),"[2]; brain, 10 min p.i.",16 µmol/L
same,% Dosis pro Gesamtgewebe (% dose per total tissue),"[2]; brain, 1 h p.i.","0,10%"
same,Gd-Konzentration (Gd-concentration),"[2]; brain, 1 h p.i.",16 µmol/L
same,% Dosis pro Gesamtgewebe (% dose per total tissue),"[2]; brain, 24 h p.i.","0,03%"
same,Gd-Konzentration (Gd-concentration),"[2]; brain, 24 h p.i.",5 µmol/L
same,% Dosis pro Gesamtgewebe (% dose per total tissue),[2]; feces 0-24 h,"8,91%"
same,Gd-Konzentration (Gd-concentration),[2]; feces 0-24 h,561 µmol/L
same,% Dosis pro Gesamtgewebe (% dose per total tissue),"[2]; femur, 10 min p.i.","0,50%"
same,Gd-Konzentration (Gd-concentration),"[2]; femur, 10 min p.i.",61 µmol/L
same,% Dosis pro Gesamtgewebe (% dose per total tissue),"[2]; femur, 1 h p.i.","0,50%"
same,Gd-Konzentration (Gd-concentration),"[2]; femur, 1 h p.i.",64 µmol/L
same,% Dosis pro Gesamtgewebe (% dose per total tissue),"[2]; femur, 24 h p.i.","0,26%"
same,Gd-Konzentration (Gd-concentration),"[2]; femur, 24 h p.i.",33 µmol/L
same,% Dosis pro Gesamtgewebe (% dose per total tissue),"[2]; heart, 10 min p.i.","0,40%"
same,Gd-Konzentration (Gd-concentration),"[2]; heart, 10 min p.i.",177 µmol/L
same,% Dosis pro Gesamtgewebe (% dose per total tissue),"[2]; heart, 1 h p.i.","0,33%"
same,Gd-Konzentration (Gd-concentration),"[2]; heart, 1 h p.i.",151 µmol/L
same,% Dosis pro Gesamtgewebe (% dose per total tissue),"[2]; heart, 24 h p.i.","0,15%"
same,Gd-Konzentration (Gd-concentration),"[2]; heart, 24 h p.i.",65 µmol/L
same,% Dosis pro Gesamtgewebe (% dose per total tissue),[2]; [9],"2,48%"
same,Gd-Konzentration (Gd-concentration),[2]; [9],146 µmol/L
same,% Dosis pro Gesamtgewebe (% dose per total tissue),"[2]; intestine (emptied), 1 h p.i.","1,85%"
same,Gd-Konzentration (Gd-concentration),"[2]; intestine (emptied), 1 h p.i.",130 µmol/L
same,% Dosis pro Gesamtgewebe (% dose per total tissue),"[2]; intestine (emptied), 24 h p.i.","1,63%"
same,Gd-Konzentration (Gd-concentration),"[2]; intestine (emptied), 24 h p.i.",101 µmol/L
same,% Dosis pro Gesamtgewebe (% dose per total tissue),"[2]; kidney, 10 min p.i.","1,70%"
same,Gd-Konzentration (Gd-concentration),"[2]; kidney, 10 min p.i.",359 µmol/L
same,% Dosis pro Gesamtgewebe (% dose per total tissue),"[2]; kidney, 1 h p.i.","2,00%"
same,Gd-Konzentration (Gd-concentration),"[2]; kidney, 1 h p.i.",394 µmol/L
same,% Dosis pro Gesamtgewebe (% dose per total tissue),"[2]; kidney, 24 h p.i.","1,38%"
same,Gd-Konzentration (Gd-concentration),"[2]; kidney, 24 h p.i.",292 µmol/L
same,% Dosis pro Gesamtgewebe (% dose per total tissue),"[2]; liver, 10 min p.i.","3,79%"
same,Gd-Konzentration (Gd-concentration),"[2]; liver, 10 min p.i.",137 µmol/L
same,% Dosis pro Gesamtgewebe (% dose per total tissue),"[2]; liver, 1 h p.i.","3,93%"
same,Gd-Konzentration (Gd-concentration),"[2]; liver, 1 h p.i.",136 µmol/L
same,% Dosis pro Gesamtgewebe (% dose per total tissue),"[2]; liver, 24 h p.i.","5,37%"
same,Gd-Konzentration (Gd-concentration),"[2]; liver, 24 h p.i.",172 µmol/L
same,% Dosis pro Gesamtgewebe (% dose per total tissue),"[2]; lung, 10 min p.i.","1,30%"
same,Gd-Konzentration (Gd-concentration),"[2]; lung, 10 min p.i.",344 µmol/L
same,% Dosis pro Gesamtgewebe (% dose per total tissue),"[2]; lung, 1 h p.i.","1,27%"
same,Gd-Konzentration (Gd-concentration),"[2]; lung, 1 h p.i.",321 µmol/L
same,% Dosis pro Gesamtgewebe (% dose per total tissue),"[2]; lung, 24 h p.i.","0,56%"
same,Gd-Konzentration (Gd-concentration),"[2]; lung, 24 h p.i.",146 µmol/L
same,% Dosis pro Gesamtgewebe (% dose per total tissue),[2]; [10],"0,11%"
same,Gd-Konzentration (Gd-concentration),[2]; [10],155 µmol/L
same,% Dosis pro Gesamtgewebe (% dose per total tissue),[2]; [11],"1,10%"
same,Gd-Konzentration (Gd-concentration),[2]; [11],160 µmol/L
same,% Dosis pro Gesamtgewebe (% dose per total tissue),[2]; [12],"0,09%"
same,Gd-Konzentration (Gd-concentration),[2]; [12],127 µmol/L
same,% Dosis pro Gesamtgewebe (% dose per total tissue),[2]; [13],"0,12%"
same,Gd-Konzentration (Gd-concentration),[2]; [13],41 µmol/L
same,% Dosis pro Gesamtgewebe (% dose per total tissue),[2]; [14],"0,08%"
same,Gd-Konzentration (Gd-concentration),[2]; [14],40 µmol/L
same,% Dosis pro Gesamtgewebe (% dose per total tissue),[2]; [15],"0,03%"
same,Gd-Konzentration (Gd-concentration),[2]; [15],13 µmol/L
same,% Dosis pro Gesamtgewebe (% dose per total tissue),"[2]; pancreas, 10 min p.i.","0,25%"
same,Gd-Konzentration (Gd-concentration),"[2]; pancreas, 10 min p.i.",99 µmol/L
same,% Dosis pro Gesamtgewebe (% dose per total tissue),"[2]; pancreas, 1 h p.i.","0,23%"
same,Gd-Konzentration (Gd-concentration),"[2]; pancreas, 1 h p.i.",95 µmol/L
same,% Dosis pro Gesamtgewebe (% dose per total tissue),"[2]; pancreas, 24 h p.i.","0,18%"
same,Gd-Konzentration (Gd-concentration),"[2]; pancreas, 24 h p.i.",55 µmol/L
same,% Dosis pro Gesamtgewebe (% dose per total tissue),[2]; [16],"0,13%"
same,Gd-Konzentration (Gd-concentration),[2]; [16],115 µmol/L
same,% Dosis pro Gesamtgewebe (% dose per total tissue),[2]; [17],"0,19%"
same,Gd-Konzentration (Gd-concentration),[2]; [17],186 µmol/L
same,% Dosis pro Gesamtgewebe (% dose per total tissue),[2]; [18],"0,11%"
same,Gd-Konzentration (Gd-concentration),[2]; [18],108 µmol/L
same,% Dosis pro Gesamtgewebe (% dose per total tissue),[2]; [19],"31,05%"
same,Gd-Konzentration (Gd-concentration),[2]; [19],103 µmol/L
same,% Dosis pro Gesamtgewebe (% dose per total tissue),"[2]; spleen, 10 min p.i.","0,25%"
same,Gd-Konzentration (Gd-concentration),"[2]; spleen, 10 min p.i.",184 µmol/L
same,% Dosis pro Gesamtgewebe (% dose per total tissue),"[2]; spleen, 1 h p.i.","0,23%"
same,Gd-Konzentration (Gd-concentration),"[2]; spleen, 1 h p.i.",161 µmol/L
same,% Dosis pro Gesamtgewebe (% dose per total tissue),"[2]; spleen, 24 h p.i.","0,25%"
same,Gd-Konzentration (Gd-concentration),"[2]; spleen, 24 h p.i.",161 µmol/L
same,% Dosis pro Gesamtgewebe (% dose per total tissue),"[2]; stomach (emptied), 10 min p.i.","0,47%"
same,Gd-Konzentration (Gd-concentration),"[2]; stomach (emptied), 10 min p.i.",90 µmol/L
same,% Dosis pro Gesamtgewebe (% dose per total tissue),"[2]; stomach (emptied), 1 h p.i.","0,50%"
same,Gd-Konzentration (Gd-concentration),"[2]; stomach (emptied), 1 h p.i.",93 µmol/L
same,% Dosis pro Gesamtgewebe (% dose per total tissue),"[2]; stomach (emptied), 24 h p.i.","0,27%"
same,Gd-Konzentration (Gd-concentration),"[2]; stomach (emptied), 24 h p.i.",48 µmol/L
same,% Dosis pro Gesamtgewebe (% dose per total tissue),"[2]; tumor, 10 min p.i.","0,20%"
same,Gd-Konzentration (Gd-concentration),"[2]; tumor, 10 min p.i.",82 µmol/L
same,% Dosis pro Gesamtgewebe (% dose per total tissue),"[2]; tumor, 1 h p.i.","0,40%"
same,Gd-Konzentration (Gd-concentration),"[2]; tumor, 1 h p.i.",126 µmol/L
same,% Dosis pro Gesamtgewebe (% dose per total tissue),"[2]; tumor, 24 h p.i.","0,46%"
same,Gd-Konzentration (Gd-concentration),"[2]; tumor, 24 h p.i.",100 µmol/L
same,% Dosis pro Gesamtgewebe (% dose per total tissue),[2]; urine 0-24 h,"36,38%"
same,Gd-Konzentration (Gd-concentration),[2]; urine 0-24 h,60 µmol/L
CC(O)CN1CCN(CC(=O)[O-])CCN(CC(=O)[O-])CCN(CC(=O)[O-])CC1.[Gd+3] (centres unmarked) [PRO HANCE ®],T^1 - Relaxivity in Plasma,[3],4.9 mmol⁻¹ s⁻¹
same,T^1 - Relaxivity in Water,[4],3.7 mmol⁻¹ s⁻¹
CNC[C@H](O)[C@@H](O)[C@H](O)[C@H](O)CO.CNC[C@H](O)[C@@H](O)[C@H](O)[C@H](O)CO.O=C([O-])CN(CCN(CC(=O)[O-])CC(=O)O)CCN(CC(=O)[O-])CC(=O)O.[Gd+3] [MAGNEVIST ®],T^1 - Relaxivity in Plasma,[3],4.8 mmol⁻¹ s⁻¹
same,T^1 - Relaxivity in Water,[4],3.8 mmol⁻¹ s⁻¹
CNC(=O)CN(CCN(CCN(CC(=O)[O-])CC(=O)NC)CC(=O)[O-])CC(=O)[O-].[Gd+3] [OMNISCAN ®],T^1 - Relaxivity in Plasma,[3],4.4 mmol⁻¹ s⁻¹
same,T^1 - Relaxivity in Water,[4],3.8 mmol⁻¹ s⁻¹
gadolinium-mesoporphyrin [Gd-MP],"ratio of the signal intensities in MRI, infarcted in comparison to healthy tissue",[5],2.10 and 2.19
CNC[C@H](O)[C@@H](O)[C@H](O)[C@H](O)CO.O=C([O-])CN1CCN(CC(=O)[O-])CCN(CC(=O)O)CCN(CC(=O)[O-])CC1.[Gd+3] [DOTAREM ®],T^1 - Relaxivity in Plasma,[3],4.3 mmol⁻¹ s⁻¹
same,T^1 - Relaxivity in Water,[4],3.5 mmol⁻¹ s⁻¹
